Assay [1] concerns HIV-1NL4-3. Put plainly: HIV-1NL4-3 infection of C8166 cells (syncytia formation, p24 ELISA). The settings on record: for P24 / Syncytium formation: C8166 cells; for inhibition of syncytium formation and p24 production of HIV-infected cells: 5 μM; for HIV inhibition characteristics: Table 3, C8166 cells. Type of assay: cell-based. Also on record: key to Syncytium formation: ++: number of syncytia present in the well were similar to that in control untreated well (35 to 40 syncitia per well); −: total absence of syncitia in the well; ±: presence of 1 to 3 syncitia in the well. As for the experimental part: C8188 cells were infected with HIV to establish a baseline control. Similar C8188 cells were pretreated the invented MBPCs and then subjected to HIV to determine inhibition rates. The results are illustrated in FIGS. 1A, 1B and 2.
Samples of 3×10^5 C8166 cells were placed in 96-well plates in a volume of 100 μl of culture medium containing various concentrations of peptide. After a one hour treatment at 37° C., 100 μl of viral solution of HIV-1NL4-3 were added. The cells were exposed to the virus of one hour at 37° C. at a multiplicity of infection of 1,000 TCID50 per ml. After through washing, cells were replaced in 1 ml of R10 with the treatment in 24-well plates and cultured in a 37° C. incubator. C8166 culture medium was replaced at day-4 post-infection. During this assay, treatment with peptide was permanent (before, during and after infection). Assays on C8166 cells have been performed at least twice and in duplicate. Toxicity was evaluated by daily cell count and trypan-blue exclusion assay. Infection of C8166 T-Cells with HIV-1NL4-3 was assessed by virus-induced cytopathic effect (syncytia formation) and by quantification of p24 viral protein in the culture supernatants. Measurements of HIV-1 p24^gag concentrations in the culture supernatants were achieved by ELISA, with a detection cut-off of 5 pg/ml (p24 HIV kit, NEN Dupont, Belgium; Quanti-Kine software, RILAB, Genova, Italy).

For assay [2], the system named is HIV-1NL4-3. The assay is described as follows: HIV-1NL4-3 infection of human PBLs/PBMCs (p24 ELISA). Type of assay: cell-based. As for the experimental part:
Human peripheral blood lymphocytes (PBLs) obtained from healthy HIV-seronegative donor (Etablissement Francais du Sang, Marseille, France) were isolated by ficoll-Hypaque gradient centrifugation. Cells were cultured in R10 medium supplemented with 20 units/ml of interleukin-2 (IL-2, Proleukin, Chiron, The Netherlands). R10 medium consists of RPMI 1640 supplemented with 2 mM ultraglutamine (BioWhittaker, Vervires, Belgium), penicillin (100 units/ml), streptomycin (100 μg/ml), and 10% heat-inactivated fetal calf serum (BioWhittaker). Cells were first stimulated with phytohemaggiutinin (20 μg/ml)-supplemented R10 (PHA P, DIFCO, Detroit, Mich., USA) for three days. Then, the medium was replaced with R10 supplemented with IL2 (20 units/ml), and subsequently cultures and experiments were carried out in this medium in a 37° C. humidified incubator with 5% CO2.
Samples of 10^6 human PBLs were placed in 96-well plates in 100 μl of R10 containing various concentrations of peptide. After one hour treatment of 37° C., 100 μl of viral solution of HIV-1NL4-3 were added. The cells were exposed to the virus for one hour at 37° C. flushed with 5% CO2. The PBL culture medium was replaced every 3-4 days. The cell viability was assessed by cell counts and trypan-blue exclusion assay. The viral production in the culture supernatant was quantified by p24 ELISA test, as described supra. […]

In the next assay the test system is HIV-1 W5A2A9 isolate. Put plainly: Inhibition of clinical isolates infectivity. Type of assay: cell-based. The settings on record: non-diluted virus solution. The source says: The gp41-derived MBPCs of the invention have been tested in vitro for their ability to inhibit HIV-induced syncytium formation, and infection of human lymphocytes by both HIV-1 and HIV-2 viruses (several laboratory strains including LAV-2B, an HIV-2 virus able to infect some CD4^−/GalCer^− cells, as well as clinical isolates such as JRCSF, P16/B6 and P16/C9). […] Similar results were obtained with other HIV strains and clinical isolates tested so far.
Example shown is the HIV-1 W5A2A9 isolate. N.B. Experiments were performed with non-diluted virus solution.

For the next assay, the system named is H × 10 (HIV-1) strain. As for the experimental part: SPC3 is (GPGRAF)8-(K)4-(K)2-K-βA-OH as disclosed in WO95/07929. D4 and D5 refer to days 4 and 5 of the experiment. OD stands for Optical Density. N.B. Experiments were performed with non diluted virus solution.
The test system of another assay is HIV-1 and HIV-2 viruses. Put plainly: In vitro inhibition of HIV-induced syncytium formation and infection of human lymphocytes. Type of assay: cell-based. To be noted: HIV-1 and HIV-2 laboratory strains and clinical isolates.
[3] abbreviates: Molarity 1 × 10^−5, day 4, non diluted virus solution.
Where [4] appears, read: Molarity 1 × 10^−6, day 4, non diluted virus solution.
Setting [5] is: Molarity 5 × 10^−5, day 4, non diluted virus solution.
The mark [6] stands for this setting: Molarity 5 × 10^−5, day 5, non diluted virus solution.
The mark [7] stands for this setting: Molarity 5 × 10^−6, day 4, non diluted virus solution.

Like-named read-outs stand apart in the source and are kept apart here.

Consider `Cc1cn([C@H]2C[C@H](N=[N+]=[N-])[C@@H](CO)O2)c(=O)[nH]c1=O` [AZT, reference compound], for which, in the assay on HIV-1NL4-3 [1] (peptide 1 μm), the P24 turned out to be 0 pg/mL and the Syncytium formation entry is “−”. In the assay with HIV-1NL4-3 [1] (peptide 10 μm), the P24 worked out at 0 pg/mL and the Syncytium formation result is on record as “−”.
Turning to (AcRQGYSPL)2-K-βA [Peptide 12], the Syncytium formation entry in the assay on HIV-1NL4-3 [1] (peptide 1 μm) and in the assay with HIV-1NL4-3 [1] (peptide 10 μm) was “++ (number of syncytia present in the well were similar to that in control untreated well (35 to 40 syncitia per well))” in each case.
In the case of (D RQGYSPL)2-K-βA [Peptide 9], the Syncytium formation entry with HIV-1NL4-3 [1] (peptide 1 μm) and in the assay on HIV-1NL4-3 [1] (peptide 10 μm) was “++ (number of syncytia present in the well were similar to that in control untreated well (35 to 40 syncitia per well))” in each case.
For (D-LPSYGQR)8-K4-K2-K-βA, in the assay with HIV-1NL4-3 [1] (at a concentration of 1 μM), the “inhibition of HIV infection of C8166 cells” value was “totally inhibit”. Besides, the “inhibition of HIV infection of PBMCs” value in the assay with HIV-1NL4-3 [2] (at a concentration of 1 μM) is recorded as “totally inhibit”.
By Inhibition is commonly meant the share of the control response that was lost under treatment. (GPGRAF)8-(K)4-(K)2-K-βA-OH [SPC3]: the “Inhibition (%) of clinical isolates infectivity” value was determined as 85.7% in the assay with HIV-1 W5A2A9 isolate ([conc] 1 × 10^−5, HIV-1 W5A2A9 isolate); 28.6% in the assay on HIV-1 W5A2A9 isolate ([conc] 1 × 10^−6, HIV-1 W5A2A9 isolate); 0% in the assay on HIV-1 W5A2A9 isolate ([conc] 1 × 10^−7, HIV-1 W5A2A9 isolate); 50.0% with HIV-1 W5A2A9 isolate ([conc] 5 × 10^−6, HIV-1 W5A2A9 isolate); 0% in the assay with HIV-1 W5A2A9 isolate ([conc] 5 × 10^−7, HIV-1 W5A2A9 isolate); 0% with HIV-1 W5A2A9 isolate ([conc] 5 × 10^−8, HIV-1 W5A2A9 isolate). In addition, the Inhibition in the assay with H × 10 (HIV-1) strain (setting [3]) was 89.13%; in the assay on H × 10 (HIV-1) strain (setting [4]) it was 0%; with H × 10 (HIV-1) strain (setting [5]), 98.89%; in the assay on H × 10 (HIV-1) strain (setting [6]) it was 98.47%; in the assay on H × 10 (HIV-1) strain (setting [7]), 50.78%. Moreover, the p24 with H × 10 (HIV-1) strain (setting [3]) is 0.4865 ng/mL; in the assay with H × 10 (HIV-1) strain (setting [4]), 4.786 ng/mL; in the assay with H × 10 (HIV-1) strain (setting [5]), 0.05556 ng/mL; in the assay on H × 10 (HIV-1) strain (setting [6]), 0.09351 ng/mL; with H × 10 (HIV-1) strain (setting [7]) it was 2.216 ng/mL.
(GYSPL)2-K-βA [Peptide 6]: the Syncytium formation result in the assay with HIV-1NL4-3 [1] (peptide 1 μm) and in the assay with HIV-1NL4-3 [1] (peptide 10 μm) was “± (presence of 1 to 3 syncitia in the well)” throughout.
As to (KQGYSPL)2-K-βA [Peptide 10], the Syncytium formation result in the assay on HIV-1NL4-3 [1] (peptide 1 μm) and in the assay on HIV-1NL4-3 [1] (peptide 10 μm) was “++ (number of syncytia present in the well were similar to that in control untreated well (35 to 40 syncitia per well))” each time.
As for (LPSYGQR)8-K4-K2—K-βA, in the assay with HIV-1NL4-3 [1], the “inhibition of syncytium formation and p24 production of HIV-infected cells” value was 100%.
For (QGYSPL)2-K-βA [Peptide 5], the Syncytium formation result is given as “± (presence of 1 to 3 syncitia in the well)” with HIV-1NL4-3 [1] (peptide 1 μm) and “−” in the assay with HIV-1NL4-3 [1] (peptide 10 μm).
Regarding (RQG)2-K-βA [Peptide 4], the results for the Syncytium formation entry in the assay on HIV-1NL4-3 [1] (peptide 1 μm) and with HIV-1NL4-3 [1] (peptide 10 μm) were “± (presence of 1 to 3 syncitia in the well)” and “−”, respectively.
For (RQGY)2-K-βA [Peptide 3] the same measures were “± (presence of 1 to 3 syncitia in the well)” and “± (presence of 1 to 3 syncitia in the well)”.
Take “(RQGY)8-(K)4-(K)2-K-βA-OH [(RQGY)8-K4-K2-K-βA]”: the “inhibition of syncytium formation and p24 production of HIV-infected cells” value with HIV-1NL4-3 [1] is 100%.
Take (RQGYS)2-K-βA-OH [Peptide 2]: in the assay with HIV-1NL4-3 [1], the HIV inhibition characteristics entry is “superior HIV inhibition characteristics”. For the same compound, in the assay with HIV-1NL4-3 [1] (peptide 1 μm), the P24 is 0 pg/mL and the Syncytium formation entry is “−”. Moreover, in the assay with HIV-1NL4-3 [1] (peptide 10 μm), the P24 was 0 pg/mL and the Syncytium formation result is “−”.
Consider (RQGYSP)2-K-βA [Peptide 1], for which the Syncytium formation entry with HIV-1NL4-3 [1] (peptide 10 μm) is recorded as “−”.
(RQGYSPL)2-K-βA [Peptide 11]: in the assay with HIV-1NL4-3 [1] (0.1 micro-molar (μm), FIG. 1, C8166 cells), the “viral activity relative to controls” value is given as “one tenth that seen in controls”. Also, the viral activity result in the assay with HIV-1NL4-3 [1] (5 μm, FIG. 1, C8166 cells) is listed as “virtually no activity”; in the assay on HIV-1NL4-3 [1] (10 μm, FIG. 1, C8166 cells), “no viral activity”. Further, the “inhibition of syncytium formation and p24 production” value with HIV-1NL4-3 [1] (HIV-1NL403 infected C8166 cells, FIG. 1) is listed as “marked inhibition”. Also, in the assay on HIV-1NL4-3 [1], the HIV inhibition characteristics result is “superior HIV inhibition characteristics”. Further, the P24 in the assay on HIV-1NL4-3 [1] (peptide 1 μm) and with HIV-1NL4-3 [1] (peptide 10 μm) was 0 pg/mL throughout. For the same compound, the Syncytium formation entry with HIV-1NL4-3 [1] (peptide 1 μm) and with HIV-1NL4-3 [1] (peptide 10 μm) was “−” in each case. In addition, the “inhibition of HIV-1NL403 infected PBMCs” value in the assay on HIV-1NL4-3 [2] (0.1 μM, FIG. 2) came to 100%.
For (SPL)2-K-βA [Peptide 8], the values for the Syncytium formation entry in the assay with HIV-1NL4-3 [1] (peptide 1 μm) and in the assay with HIV-1NL4-3 [1] (peptide 10 μm) were “++ (number of syncytia present in the well were similar to that in control untreated well (35 to 40 syncitia per well))” and “± (presence of 1 to 3 syncitia in the well)”, respectively.
On to (YSPL)2-K-βA [Peptide 7], for which the Syncytium formation result with HIV-1NL4-3 [1] (peptide 1 μm) and in the assay with HIV-1NL4-3 [1] (peptide 10 μm) was “± (presence of 1 to 3 syncitia in the well)” each time.
For RQGYSPL [monomeric RQGYSPL], the “antiviral properties (HIV-induced syncytium formation, infection of human lymphocytes)” value in the assay with HIV-1 and HIV-2 viruses is “inactive”.

The values above are taken from patent US7285621B2, “Multiple branch peptide construction” (Ambrilia Biopharma, priority 1999, dated 2007).
